{"source": "patent US20250282757A1", "about": "“ARYL ETHER-SUBSTITUTED HETEROCYCLIC COMPOUNDS AS GLP1R AGONISTS” (MINDRANK AI LTD., priority 2021, published 2025)", "key": {"[1]": {"system": "cynomolgus monkeys", "assay": "Intravenous glucose tolerance (IVGTT) experiment in cynomolgus monkey", "assay_type": "in vivo", "protocol": "The compounds were dissolved in 10% Solutol HS15+90% Saline by vortex ultrasound. Vehicle was 10% Solutol HS15+90% Saline.\nMale cynomolgus monkeys, 10-15 years old, weighing 6-13 kg. Healthy animals were selected for efficacy studies according to alanine aminotransferase (ALT), aspartate aminotransferase (AST), triglyceride (TG), total cholesterol (TC), high density lipoprotein (HDL), low density lipoprotein (LDL), glycosylated hemoglobin (HbA1c), body weight (BW).\nAfter 1 week of acclimation, the IVGTT baseline before administration was measured, and the animals were grouped according to the insulin and blood glucose results of the IVGTT. The detailed information of treatment was as follows:\nIVGTT was started after 2 hours post of compound dosing. Blood were collected-at −15 min, 0 min (before sugar administration), and 2, 5, 7, 10, 20, and 30 min after sugar administration. And the blood glucose level were measured.\nData was analyzed by Graphpad Prism 6 and the statistical method was one-way ANOVA Dunnett's test. Compared with the vehicle group, p<0.05 was considered significant difference. * means p<0.05, ** means p<0.01, *** means p<0.001."}, "[2]": {"system": "h-GLP1-R C57BL6J mice", "assay": "Intraperitoneal glucose tolerance (IPGTT) test in h-GLP1-R C57BL6J mice", "assay_type": "in vivo", "protocol": "The compounds to be tested were dissolved in 10% Solutol HS15+90% Saline, and vortexed by ultrasonic to dissolve.\nMale SPF h-GLP1-R C57BL6J mice, 6-9 weeks old, weighing 20 g-25 g.\nUpon arrival, animals were acclimated for 7 days before experiments. The body weight and random blood sugar of the animals were measured one day before administration. Animals were divided into 4 groups based on body weight and random blood glucose.\nMice were overnight fasted before IPGTT. Baseline fasting blood glucose and insulin level were measured before vehicle or compound dosing. 30 min post of compound dosing, glucose were injected intraperitoneally (2 g/kg, 10 ml/kg). Blood glucose levels were measured at −30, 0, 15, 30, 60, 120 min. Plasma 15 ul were collected at 0 and 15 min for insulin analysis by Rat/Mouse Insulin Elisa Kit.\nAUC0-120min was the area under the blood glucose-time curve. Insulin change was the difference between 15 min and 0 min plasma insulin concentration. Statistical analysis of data was performed with Graphpad Prism 6, and the statistical method was one-way ANOVA Dunnett test. Compared with the vehicle group, p<0.05 was considered a significant difference. * means p<0.05, ** means p<0.01, *** means p<0.001."}, "[3]": {"biological_target": "GLP-1R (Homo sapiens, UniProt P43220)", "sequence (P43220 24-463)": "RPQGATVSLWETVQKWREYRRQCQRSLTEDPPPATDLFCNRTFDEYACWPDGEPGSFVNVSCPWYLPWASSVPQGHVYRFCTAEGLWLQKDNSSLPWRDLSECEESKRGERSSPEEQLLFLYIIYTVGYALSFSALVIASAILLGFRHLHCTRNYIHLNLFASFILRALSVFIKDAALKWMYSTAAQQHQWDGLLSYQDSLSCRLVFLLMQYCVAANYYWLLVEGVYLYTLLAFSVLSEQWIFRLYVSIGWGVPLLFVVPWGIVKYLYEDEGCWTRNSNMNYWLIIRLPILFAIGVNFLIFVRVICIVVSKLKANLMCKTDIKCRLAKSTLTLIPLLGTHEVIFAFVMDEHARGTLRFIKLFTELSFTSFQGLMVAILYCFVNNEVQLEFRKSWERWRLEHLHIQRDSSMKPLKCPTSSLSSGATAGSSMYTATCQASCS", "assay": "Agonist activity on GLP-1R, HTRF cAMP detection in stably transfected GLP-1R/HEK293 cells", "assay_type": "cell-based"}, "[4]": {"assay": "Pharmacokinetic study in mice", "assay_type": "in vivo, CD-1 mice", "settings": "for AUC(0-inf): read-out: AUC0-inf; for half-life: read-out: T½ (converted)", "protocol": "The pharmacokinetic properties of some compounds of the present invention were evaluated in mice pharmacokinetic experiments. SPF male CD-1 mice from Beijing Vital River Laboratory Animal Technology Co., Ltd were used with 6 mice in each group. Compounds were dissolved in 10% solutol/90% saline. A single intravenous administration was given at a dose of 1 mg/kg in a volume of 1 mL/kg. A single intragastric administration was given at a dose of 5 mg/kg in a volume of 1 mL/kg. Animals were fasted overnight prior to the administration and resumed feeding 4 hours after administration, ad libitum to water. Blood was collected at 0.0830, 0.25, 0.5, 1, 2, 4, 6, 8 and 24 hours after dosing. About […] of whole blood was collected from the saphenous vein of animals and placed in an EDTA-K2 anticoagulation tube. The samples were centrifuged at 4° C. and 4200 rpm for 5 min, and the plasma was transferred into a centrifuge tube and stored at −80° C. until analysis. For plasma sample analysis, the test compounds and internal standards (Labetalol & tolbutamide & Verapamil & dexamethasone & glyburide & Celecoxib) were extracted from mice plasma by protein precipitation method with acetonitrile, and the extracts were analyzed by LC/MS/MS. The measured plasma concentration-time data of individual animals were analyzed with the non-compartmental model of Phoenix WinNonlin 7.0 (Pharsight, USA) software, and the pharmacokinetic parameters of mice were obtained as follows: maximum (peak) plasma drug concentration Cmax; Peak time Tmax; half-life T1/2 and area under the plasma concentration-time curve extrapolated to infinity AUC0-inf."}, "[5]": {"assay": "Pharmacokinetic study in monkeys", "assay_type": "in vivo, cynomolgus monkeys", "settings": "for AUC(0-inf): read-out: AUC0-inf; for half-life: read-out: T½ (converted)", "protocol": "The pharmacokinetic properties of compounds of the present invention were evaluated in monkey pharmacokinetic experiments with 3 male Non-naive cynomolgus monkeys per group. Compounds were dissolved in 10% solutol/90% saline. For single intravenous administration, the dose was 1 mg/kg, and the administration volume was 1 mL/kg. For single intragastric administration, the dose was 5 mg/kg, and the administration volume was 1 mL/kg. Animals were fasted overnight with free water before the experiment and resumed feeding 4 hours after administration. Blood was collected at 0.0830, 0.25, 0.5, 1, 2, 4, 6, 8 and 24 hours after dosing. About 0.4 mL of whole blood was collected from the animal's forearm vein and placed in an EDTA-K2 anticoagulant tube. The samples were centrifuged at 4° C. and 4200 rpm for 5 min, and the plasma was transferred to a centrifuge tube and stored at −80° C. until analysis. For plasma sample analysis, the test compounds and internal standards (Labetalol & tolbutamide & Verapamil & dexamethasone & glyburide & Celecoxib) were extracted from monkey plasma by protein precipitation method with acetonitrile, and the extracts were analyzed by LC/MS/MS. Measured plasma concentration-time data in individual animals were analyzed using the non-compartmental model of Phoenix WinNonlin 7.0 (Pharsight, USA) software to obtain the following pharmacokinetic parameters: maximum (peak) plasma drug concentration Cmax; time to peak Tmax; Half-life T1/2 and area under the plasma concentration-time curve extrapolated to infinity AUC0-inf."}, "[6]": {"settings": "mouse, plasma, male CD-1 mice, 1 mg/kg iv"}, "[7]": {"settings": "mouse, plasma, male CD-1 mice, 5 mg/kg po"}, "[8]": {"settings": "cynomolgus monkey, plasma, male cynomolgus monkeys, 1 mg/kg iv"}, "[9]": {"settings": "cynomolgus monkey, plasma, male cynomolgus monkeys, 5 mg/kg po"}}}
{"compound": "N#Cc1ccc(OCc2cccc(OC3CCN(Cc4nc5ccc(C(=O)O)cc5n4C[C@@H]4CCO4)CC3)n2)c(F)c1", "note": "[Compound 55, (S)-2-((4-((6-((4-cyano-2-fluorophenoxy)methyl)pyridin-2-yl)oxy)piperidin-1-yl)methyl)-1-(oxetan-2-ylmethyl)-1H-benzo[d]imidazole-6-carboxylic acid]", "values": [{"measurement": "effect on blood glucose compared with PF-06882961", "setting": "[1]; 100 mg/kg po, IVGTT", "result": "equivalent"}, {"measurement": "blood glucose level in IVGTT", "setting": "[1]; single oral dose of 100 mg/kg, IVGTT 2 hours after dosing", "result": "significantly lower the blood glucose level"}, {"measurement": "Insulin change (15 min minus 0 min plasma insulin)", "setting": "[2]; 0.3 mpk po", "result": "significantly increase insulin secretion"}, {"measurement": "AUC0-120min (area under the blood glucose-time curve)", "setting": "[2]; 0.3 mpk po, compared with the vehicle group", "result": "significant difference compared with the vehicle group"}, {"measurement": "blood glucose during IPGTT", "setting": "[2]; single oral dose 0.3 mg/kg, glucose 2 g/kg ip 30 min after dosing", "result": "significantly reduced the blood glucose"}, {"measurement": "EC50", "setting": "[3]; 30 min incubation", "result": 0.149, "unit": "nM"}, {"measurement": "Max activity", "setting": "[3]; relative to top concentration of reference GLP-1(7-37)", "result": 111.5, "unit": "%"}, {"measurement": "F", "setting": "[4]; male CD-1 mice, 5 mg/kg po", "result": 32.7, "unit": "%"}, {"measurement": "clearance rate compared with PF-06882961", "setting": "[4]; mice", "result": "lower clearance rates"}, {"measurement": "exposure compared with PF-06882961", "setting": "[4]; mice", "result": "higher exposure"}, {"measurement": "clearance", "setting": "[4]; [6]", "result": 26.2, "unit": "mL/min/kg"}, {"measurement": "AUC(0-inf)", "setting": "[4]; [6]", "result": 637, "unit": "ng·h/mL"}, {"measurement": "half-life", "setting": "[4]; [6]", "result": 90, "unit": "min"}, {"measurement": "Vd", "setting": "[4]; mouse, plasma, male CD-1 mice, 1 mg/kg iv, read-out: Vdss", "result": 1.3, "unit": "L/kg"}, {"measurement": "AUC(0-inf)", "setting": "[4]; [7]", "result": 1040, "unit": "ng·h/mL"}, {"measurement": "Cmax", "setting": "[4]; mouse, plasma, male CD-1 mice, 5 mg/kg po, read-out: Cmax", "result": 483, "unit": "ng/mL"}, {"measurement": "half-life", "setting": "[4]; [7]", "result": 102, "unit": "min"}, {"measurement": "clearance", "setting": "[5]; [8]", "result": 12, "unit": "mL/min/kg"}, {"measurement": "AUC(0-inf)", "setting": "[5]; [8]", "result": 1420, "unit": "ng·h/mL"}, {"measurement": "half-life", "setting": "[5]; [8]", "result": 132, "unit": "min"}, {"measurement": "Vd", "setting": "[5]; cynomolgus monkey, plasma, male cynomolgus monkeys, 1 mg/kg iv, read-out: Vdss", "result": 0.4, "unit": "L/kg"}, {"measurement": "AUC(0-inf)", "setting": "[5]; [9]", "result": 614, "unit": "ng·h/mL"}, {"measurement": "Cmax", "setting": "[5]; cynomolgus monkey, plasma, male cynomolgus monkeys, 5 mg/kg po, read-out: Cmax", "result": 214, "unit": "ng/mL"}, {"measurement": "half-life", "setting": "[5]; [9]", "result": 324, "unit": "min"}, {"measurement": "F", "setting": "[5]; male cynomolgus monkeys, 5 mg/kg po", "result": 8.6, "unit": "%"}, {"measurement": "clearance rate compared with PF-06882961", "setting": "[5]; monkeys", "result": "lower clearance rates"}, {"measurement": "exposure compared with PF-06882961", "setting": "[5]; monkeys", "result": "higher exposure"}, {"measurement": "half-life compared with PF-06882961", "setting": "[5]; monkeys", "result": "greater"}]}
